According to the supplement of paper PMC12613149:
Structures can show the parent of a compound that is named as a salt.

Experiments:
[1] = reversed-phase LC retention time (C18, 15 min MeOH gradient); higher = more hydrophobic / later elution
Description: (§1)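 Reference mixture of environmental contaminants analysed by RP-LC (BEH C18, 50 °C; ESI+ with water/MeOH plus formic acid and ammonium formate, ESI- with ammonium bicarbonate) coupled to a timsTOF Pro 2 with trapped ion mobility in nitrogen (ramp/accumulation 100 ms). CCS was calibrated with Agilent tune mix (CCS compendium) and averaged over five injections at 0.5-500 ng/mL. The table reports the lowest-CCS (putative monomer) peak; retention times are on the same gradient.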

[2] = collision cross section (TIMS, N2 drift gas) of the primary ion; higher = larger gas-phase ion size
Description: as §1

[3] = ionization mode: ESI+, ion species: [M+H]+
[4] = ionization mode: ESI-, ion species: [M-H]-

Compound	reversed-phase LC retention time [1, 3] [min]	collision cross section [2, 3] [Å²]	reversed-phase LC retention time [1, 4] [min]	collision cross section [2, 4] [Å²]
CCCCc1oc2ccccc2c1C(=O)c1cc(I)c(OCCN(CC)CC)c(I)c1 [Amiodarone]	16.5	228.68	–	–
CN(C(=O)CO)c1c(I)c(C(=O)NCC(O)CO)c(I)c(C(=O)NCC(O)CO)c1I (configuration not stated) [Iomeprol]	5.52	216.41	5.58	210.1
CN(C1CCCCC1)C1CCCCC1 [N-Methyl-dicyclohexylamine]	9.45	148.45	–	–
CCOC(=O)c1cn2nc(OP(=S)(OCC)OCC)cc2nc1C [Pyrazophos]	15.8	187.33	–	–
CCCC(C)C1(CC)C(=O)NC(=O)NC1=O (configuration not stated) [Pentobarbital]	–	–	12.2	150.46
C[C@@H]1C[C@H]2[C@@H]3CCC4=CC(=O)C=C[C@]4(C)[C@@]3(Cl)[C@@H](O)C[C@]2(C)[C@@]1(OC(=O)c1ccco1)C(=O)CCl [Mometasone fuorate]	15.2	217.59	15.7	214.51
CC[C@H]1OC(=O)[C@H](C)[C@@H](O[C@H]2C[C@@](C)(OC)[C@@H](O)[C@H](C)O2)[C@H](C)[C@@H](O[C@@H]2O[C@H](C)C[C@H](N(C)C)[C@H]2O)[C@](C)(O)C[C@@H](C)C(=NOCOCCOC)[C@H](C)[C@@H](O)[C@]1(C)O [Roxithromycin]	14.1	277.32	–	–
COc1cc2ccc(=O)oc2c(OC)c1OC [Dimethylfraxetin]	10.6	147.68	–	–
CC(C)N(C(=O)CCl)c1ccccc1 [Propachlor]	13	143.81	–	–
CCNc1nc(NC(C)C)nc(SC)n1 [Ametryne]	12.8	155.28	–	–
OC(Cn1cncn1)(Cn1cncn1)c1ccc(F)cc1F [Fluconazole]	9.38	166.92	9.54	158.78
CCCOc1nn(C(=O)NS(=O)(=O)c2ccccc2C(=O)OC)c(=O)n1C [Propoxycarbazone]	11.7	199.32	9.86	193.45
CNC(=O)Oc1cccc2c1OC(C)(C)C2 [Carbofuran]	11.7	147.19	–	–
COCCc1ccc(OCC(O)CNC(C)C)cc1 (configuration not stated) [Metoprolol]	9.39	171.87	–	–
CSC1=N[C@@](C)(c2ccccc2)C(=O)N1Nc1ccccc1 [Fenamidone]	14.1	173.13	–	–
Cc1ccc(NC(=O)N(C)C)cc1Cl [Chlorotoluron]	12.5	147.58	–	–
COc1cc2c(c3oc(=O)c4c(c13)CCC4=O)C1C=COC1O2 (configuration not stated) [Aflatoxin B1]	11.4	165.23	–	–
C=C1C[C@@H]2[C@H](CC[C@]3(C)C(=O)CC[C@@H]23)[C@@]2(C)C=CC(=O)C=C12 [Exemestane]	13.9	173.31	–	–
CCOP(=O)(OCC)OC(=CCl)c1ccc(Cl)cc1Cl [Chlorfenvinphos]	15.7	169.3	–	–
CCC(=O)O[C@]1(C(=O)CCl)[C@@H](C)C[C@H]2[C@@H]3CCC4=CC(=O)C=C[C@]4(C)[C@@]3(F)[C@@H](O)C[C@@]21C [Clobetasol propionate]	15.2	207.98	15.6	210.25
CCC(=NOC/C=C/Cl)C1=C(O)CC(C2CCOCC2)CC1=O (configuration not stated) [Tepraloxydim (two peaks)]	14.7	186.68	9.17	181.89
c1ccc2sc(N3CCOCC3)nc2c1 [2(4-morpholinyl)benzothiazole]	12.6	145.3	–	–
COC(=O)[C@H](C)N(C(=O)Cc1ccccc1)c1c(C)cccc1C [Benalaxyl]	15.6	173.08	–	–
CCCCOC(=O)CC(O)(CC(=O)OCCCC)C(=O)OCCCC [Tri-n-butyl citrate]	16.5	203.87	–	–
CC(C)c1c(C(=O)Nc2ccccc2)c(-c2ccccc2)c(-c2ccc(F)cc2)n1CCC(O)CC(O)CC(=O)O (configuration not stated) [Atorvastatin]	15.1	232.51	14.6	228.86
NC(CC(=O)N1CCn2c(nnc2C(F)(F)F)C1)Cc1cc(F)c(F)cc1F (configuration not stated) [Sitagliptin]	9.57	192.92	12.1	182.72
Cc1nccn1CC1CCc2c(c3ccccc3n2C)C1=O (configuration not stated) [Ondansetron]	9.49	173.57	–	–
CCCCCCCCCCN(C)C [N,N-Dimethyldecylamine]	13.7	158.65	–	–
